Results: patent US20260347336A1, “PRODRUGS, FORMULATIONS AND METHODS THEREOF” (OCULAR THERAPEUTIX, INC., priority 2022, published 2026)
Converted amounts (≈) assume the structure as drawn.

Legend:
[1] = cited from earlier work
[2] = Stability in phosphate buffer saline (Example 8); type: physicochemical; settings: PBS, pH-7.40; for remaining at 24 h / remaining at 72 h / remaining at 168 h: phosphate buffer saline, pH 7.4, read-out: % remaining compared to Day 0; for remaining at 24 h: Day 1; for remaining at 72 h: Day 3; for remaining at 168 h: Day 7
Experimental: Axitinib prodrugs of the present invention were tested for stability in phosphate buffer saline (PBS, pH-7.40).

[3] = Solubility of axitinib and prodrug in phosphate buffer saline pH 7.4, 24 hour at 22 °C (Example 2); type: physicochemical
Experimental: Solubility testing was performed with the following test items and conditions: • Test items: axitinib (99.99% purity by HPLC); axitinib-N-mPEG-succinoyloxymethyl prodrug (93.6% purity by HPLC) • Test media: phosphate buffer saline pH 7.4 • Incubation condition: 24 hour at 22 °C with continuous shaking • Test concentration: 1 mg/mL • Data analysis: Solubility of test item was determined by HPLC analysis with calibration curve

[4] = Solubility of axitinib prodrugs in phosphate buffer saline (Example 7); type: physicochemical; settings: phosphate buffer saline (PBS, pH-7.40)
Experimental: Axitinib prodrugs of the present invention were tested for solubility in phosphate buffer saline (PBS, pH-7.40).

[5] = Particle size after micronization (Example 6); type: physicochemical; settings: micronized
Excerpt: The micronization of the axitinib-N-m (PEG)2-oxymethyl prodrug obtained in Example 6 in a dry dispersion was D90=12.4 μm; D50=3.6 μm and D10=0.6 μm and dispersed in water was D90=12.2 μm; D50=5.2 μm and D10=1.1 μm.

[6] = phosphate buffer saline pH 7.4, 24 hour at 22 °C, continuous shaking, test concentration 1 mg/mL, HPLC

| Compound | % remaining compared to Day 0 [2] [%] | remaining at 24 h [2] [%] | remaining at 72 h [2] [%] | remaining at 168 h [2] [%] | solubility ([4]; pH 7.4, read-out: Solubility) [µg/mL] | solubility [4] | further results |
| --- | --- | --- | --- | --- | --- | --- | --- |
| CNC(=O)c1ccccc1Sc1ccc2c(/C=C/c3ccccn3)n[nH]c2c1 [Axitinib, axitinib, reference compound] | 100.00 | 96.7 | 96.2 | 91.8 |  |  | literature reported solubility [1]: about 0.2 mcg/mL; solubility at 24 h [3, 6]: < 0.78 µg/mL |
| CNC(=O)c1ccccc1Sc1ccc2c(/C=C/c3ccccn3)nn(COC(=O)CCC(=O)O)c2c1 [Axitinib-N-Succinoyloxymethyl Prodrug] |  |  |  |  | 217 (≈ 421 µM) |  |  |
| CNC(=O)c1ccccc1Sc1ccc2c(/C=C/c3ccccn3)nn(COC(=O)CCOC)c2c1 [Axitinib-N-m(PEG)1-oxymethyl prodrug] | 100.00 | 38.8 | 6.7 | 5 |  | Not Soluble |  |
| CNC(=O)c1ccccc1Sc1ccc2c(/C=C/c3ccccn3)nn(COC(=O)CCOCCOC)c2c1 [Axitinib-N-m(PEG)2-oxymethyl prodrug] | 100.00 | 45.9 | 30.5 | 16.9 | 1.1 (≈ 2.01 µM) |  | D10 ([5]; dispersed in water): 1.1 μm; D50 ([5]; dispersed in water): 5.2 μm; D90 ([5]; dispersed in water): 12.2 μm; D10 ([5]; dry dispersion): 0.6 μm; D50 ([5]; dry dispersion): 3.6 μm; D90 ([5]; dry dispersion): 12.4 μm |
| CNC(=O)c1ccccc1Sc1ccc2c(/C=C/c3ccccn3)nn(COC(=O)CCOCCOCCOC)c2c1 [Axitinib-N-m(PEG)3-oxymethyl prodrug] | 100.00 | 53.9 | 24 | 12.7 | 6.16 (≈ 10.4 µM) |  |  |
| axitinib-N-mPEG-succinoyloxymethyl [N-mPEG succinoyloxymethyl Prodrug] |  |  |  |  |  | 99.37 µg/mL | solubility [3, 6]: 99.37 µg/mL; solubility enhancement of prodrug ([3]; versus axitinib): ~ 500 × |
